Target: T1, human ferroportin (Homo sapiens, UniProt Q9NP59)
T1 construct: luciferase reporter (probably NanoLuc: read with the Nano-Glo Luciferase Assay System); expressed in transfected cells; host or cells: CHO cells, stably transfected, doxycycline-inducible expression
T1 sequence (Q9NP59 1-571): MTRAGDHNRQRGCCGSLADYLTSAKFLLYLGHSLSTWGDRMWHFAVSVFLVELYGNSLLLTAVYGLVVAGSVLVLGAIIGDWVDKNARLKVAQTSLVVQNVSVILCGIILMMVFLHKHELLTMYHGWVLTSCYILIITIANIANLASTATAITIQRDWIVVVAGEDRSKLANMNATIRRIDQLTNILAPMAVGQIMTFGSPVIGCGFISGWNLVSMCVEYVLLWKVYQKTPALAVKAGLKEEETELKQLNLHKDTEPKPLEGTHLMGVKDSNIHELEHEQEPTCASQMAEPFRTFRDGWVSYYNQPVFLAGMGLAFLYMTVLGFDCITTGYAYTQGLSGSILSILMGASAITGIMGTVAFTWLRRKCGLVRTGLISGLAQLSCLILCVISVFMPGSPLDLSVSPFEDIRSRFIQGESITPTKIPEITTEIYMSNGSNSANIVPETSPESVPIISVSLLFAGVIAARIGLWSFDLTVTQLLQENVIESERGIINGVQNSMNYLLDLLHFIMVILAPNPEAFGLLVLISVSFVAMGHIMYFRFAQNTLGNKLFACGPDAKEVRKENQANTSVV
Test: In-vitro ferroportin internalization assay (luciferase reporter)
Assay type: cell-based
Conditions: average pEC50; stably-transfected CHO cell line expressing human ferroportin tagged to a luciferase reporter; 6 h incubation with test compounds
In short: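 CHO cells stably expressing human ferroportin fused to a luciferase reporter were plated 24 h with ferric ammonium citrate, then induced with doxycycline for 24 h. Compounds in DMSO were incubated with cells for 6 h before luciferase readout by Nano-Glo. Results are reported as average pEC50.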

pEC50: 7.1
Compound: Oc1nc(NCc2ncccc2F)c2nc([C@H](F)CNCCc3nc4ccccc4[nH]3)sc2n1 [Compound 83, 2-[(1R)-2-{[2-(1H-1,3-benzodiazol-2-yl)ethyl]amino}-1-fluoroethyl]-7-{[(3-fluoropyridin-2-yl)methyl]amino}-[1,3]thiazolo[5,4-d]pyrimidin-5-ol]

Source: patent publication US11286243B2 (GLOBAL BLOOD THERAPEUTICS, INC., priority 2018, dated 2022)
